Measurements published in patent US20130115671A1, “ENZYMES FROM CONIDIOBOLUS BREFELDIANUS AND PROCESS FOR PREPARATION THEREOF” (Council of Scientific and Industrial Research, priority 2010, published 2013).
Several values for one entry are separate records, joined by “and”; a condition that tells them apart may be missing. Equal entries are not always repeated. Where two headings read alike, the source gives them in different places. One block for each compound: values may come before it.

Columns and labels:
[1] = system: protease secreted by Conidiobolus brefeldianus MTCC 5185; assay: Effect of metals on protease activity; type: biochemical; details: metal 5 mM in assay mixture, crude protease
[2] = system: protease from Conidiobolus brefeldianus MTCC 5185
Description: This example illustrates the stability of the protease in presence of salts. […] Aliquots were removed at regular intervals of 30 min and residual activity was estimated at 50° C., pH 9.

[3] = system: protease of Conidiobolus brefeldianus MTCC 5185; assay: Effect of inhibitors on protease activity (PMSF, EDTA, iodoacetate, DMSO); type: biochemical
Text: This example illustrates the effect of inhibitors on protease activity of Conidiobolus brefeldianus MTCC 5185. Following inhibitors were studied: phenylmethylsulfonyl fluoride (PMSF), ethylene-diaminetetraacetic acid (EDTA), iodoacetic acid, and dimeth ylsulphoxide (DMSO). The crude culture filtrate grown as described in example 3 was concentrated by ultra-filtration on PM-10 and YM-3 membranes as described in example 27 and used for inhibition studies. Both the protease preparations were pre-incubated in 100 mM Tris-HCl buffer (pH 8.0) with each inhibitor for 1 h and the residual protease activity was measured at 50° C., pH 9.0. Protease without inhibitor served as control.

[4] = system: protease from Conidiobolus brefeldianus MTCC 5185; assay: Stability of protease at 50° C. in presence of trehalose and sorbitol; type: physicochemical; design: unit not given here
Text: Stability increased with increasing concentration of trehalose and sorbitol.

[5] = system: protease from Conidiobolus brefeldianus MTCC 5185; assay: Stability of protease at 50° C. in presence of sugar alcohols; type: physicochemical; design: unit not given here
Description: Ultrafiltered protease as described in example 27 was incubated at 50° C. in presence of glycerol, mannitol, sorbitol and xylitol at 20% concentration up to 3 h. Aliquots were removed at regular intervals of 30 min and residual activity was estimated at 50° C., pH 9.

[6] = 10 mM CaCl2, 0.5M NaCl, 0.5M glycine or 15% (NH4)2SO4, 0 min
[7] = salt concentration as in column head, 30 min
[8] = salt concentration as in column head, 60 min
[9] = salt concentration as in column head, 90 min
[10] = salt concentration as in column head, 120 min
[11] = salt concentration as in column head, 180 min
[12] = pre-incubated 1 h, pH 8.0, 20 mM EDTA, 10 mM Iodoacetate, 1 mM PMSF (in DMSO), DMSO
[13] = ultrafiltered protease with 20% sugar alcohol, 0 min

SMILES: [Cl-].[Cl-].[Mg+2] [MgCl2]
Relative Activity (%) of protease [1]: 132.24%

SMILES: O=S(=O)([O-])[O-].[Mg+2] [MgSO4]
Relative Activity (%) of protease [1]: 135.87%

SMILES: [Cl][Mn][Cl] [MnCl2]
Relative Activity (%) of protease [1]: 104.49%

SMILES: O=S(=O)([O-])[O-].[Mn+2] [MnSO4]
Relative Activity (%) of protease [1]: 108.39%

SMILES: [Cl-].[Na+] [NaCl]
Residual Activity (%) of protease at 50° C. [2, 6]: 100.00%
Residual Activity (%) of protease at 50° C. [2, 7]: 77.79%
Residual Activity (%) of protease at 50° C. [2, 8]: 54.11%
Residual Activity (%) of protease at 50° C. [2, 9]: 49.26%
Residual Activity (%) of protease at 50° C. [2, 10]: 48.83%
Residual Activity (%) of protease at 50° C. [2, 11]: 37.44%

SMILES: [Cl][Ni][Cl] [NiCl2]
Relative Activity (%) of protease [1]: 65.60%

SMILES: O=S(=O)(F)Cc1ccccc1 [PMSF, phenylmethylsulfonyl fluoride]
inhibition of protease ([3]; 1 mM PMSF): completely inhibited
Inhibition (%) PM-10 Retentate [3, 12]: 79.27%
Inhibition (%) YM-3 Retentate [3, 12]: 90.24%

residual activity of protease at 50° C. ([4]; additive 20%, 0 h): 100.00
residual activity of protease at 50° C. ([4]; additive 20%, 1 h): 78.14
residual activity of protease at 50° C. ([4]; additive 20%, 2 h): 62.15
residual activity of protease at 50° C. ([4]; additive 20%, 3 h): 46.12
residual activity of protease at 50° C. ([4]; additive 20%, 4 h): 39.80
residual activity of protease at 50° C. ([4]; additive 40%, 0 h): 100.00
residual activity of protease at 50° C. ([4]; additive 40%, 1 h): 85.27
residual activity of protease at 50° C. ([4]; additive 40%, 2 h): 75.99
residual activity of protease at 50° C. ([4]; additive 40%, 3 h): 75.47
residual activity of protease at 50° C. ([4]; additive 40%, 4 h): 71.11
residual activity of protease at 50° C. ([4]; additive 50%, 0 h): 100.00
residual activity of protease at 50° C. ([4]; additive 50%, 1 h): 92.32
residual activity of protease at 50° C. ([4]; additive 50%, 2 h): 89.98
residual activity of protease at 50° C. ([4]; additive 50%, 3 h): 85.89
residual activity of protease at 50° C. ([4]; additive 50%, 4 h): 81.89
residual activity of protease at 50° C. ([4]; additive 50%, 4 h, listed as trehalose): ~80
SMILES: OC[C@H]1O[C@H](O[C@H]2O[C@H](CO)[C@@H](O)[C@H](O)[C@H]2O)[C@H](O)[C@@H](O)[C@@H]1O [Trehalose, trehalose]

SMILES: [Cl-].[Cl-].[Zn+2] [ZnCl2]
Relative Activity (%) of protease [1]: 60.27%

SMILES: O=S(=O)([O-])[O-].[Zn+2] [ZnSO4]
Relative Activity (%) of protease [1]: 58.03%

residual activity of protease at 50° C. ([5]; 20% sugar alcohol, 30 min): 74.68
residual activity of protease at 50° C. ([5]; 20% sugar alcohol, 60 min): 62.01
residual activity of protease at 50° C. ([5]; 20% sugar alcohol, 90 min): 49.08
residual activity of protease at 50° C. ([5]; 20% sugar alcohol, 120 min): 36.97
residual activity of protease at 50° C. ([5]; 20% sugar alcohol, 180 min): 31.73
residual activity of protease at 50° C. [5, 13]: 100
SMILES: OCC(O)CO [glycerol]

Residual Activity (%) of protease at 50° C. [2, 6]: 100.00%
Residual Activity (%) of protease at 50° C. [2, 7]: 74.85%
Residual Activity (%) of protease at 50° C. [2, 8]: 54.19%
Residual Activity (%) of protease at 50° C. [2, 9]: 43.16%
Residual Activity (%) of protease at 50° C. [2, 10]: 39.89%
Residual Activity (%) of protease at 50° C. [2, 11]: 31.62%
SMILES: NCC(=O)O [glycine]

residual activity of protease at 50° C. ([5]; 20% sugar alcohol, 30 min): 84.01
residual activity of protease at 50° C. ([5]; 20% sugar alcohol, 60 min): 70.66
residual activity of protease at 50° C. ([5]; 20% sugar alcohol, 90 min): 62.31
residual activity of protease at 50° C. ([5]; 20% sugar alcohol, 120 min): 51.57
residual activity of protease at 50° C. ([5]; 20% sugar alcohol, 180 min): 47 and 47.11
residual activity of protease at 50° C. [5, 13]: 100
residual activity of protease at 50° C. ([4]; additive 20%, 0 h): 100.0
residual activity of protease at 50° C. ([4]; additive 20%, 1 h): 77.28
residual activity of protease at 50° C. ([4]; additive 20%, 2 h): 49.25
residual activity of protease at 50° C. ([4]; additive 20%, 3 h): 42.99
residual activity of protease at 50° C. ([4]; additive 20%, 4 h): 33.11
residual activity of protease at 50° C. ([4]; additive 40%, 0 h): 100.0
residual activity of protease at 50° C. ([4]; additive 40%, 1 h): 87.00
residual activity of protease at 50° C. ([4]; additive 40%, 2 h): 70.69
residual activity of protease at 50° C. ([4]; additive 40%, 3 h): 61.54
residual activity of protease at 50° C. ([4]; additive 40%, 4 h): 58.57
residual activity of protease at 50° C. ([4]; additive 50%, 0 h): 100.0
residual activity of protease at 50° C. ([4]; additive 50%, 1 h): 91.31
residual activity of protease at 50° C. ([4]; additive 50%, 2 h): 88.44
residual activity of protease at 50° C. ([4]; additive 50%, 3 h): 79.44
residual activity of protease at 50° C. ([4]; additive 50%, 4 h): ~80
residual activity of protease at 50° C. ([4]; additive 50%, 4 h, listed as Sorbitol): 78.25
SMILES: OC[C@@H](O)[C@@H](O)[C@H](O)[C@@H](O)CO [sorbitol]

residual activity of protease at 50° C. ([5]; 20% sugar alcohol, 30 min): 76.31
residual activity of protease at 50° C. ([5]; 20% sugar alcohol, 60 min): 63.36
residual activity of protease at 50° C. ([5]; 20% sugar alcohol, 90 min): 52.42
residual activity of protease at 50° C. ([5]; 20% sugar alcohol, 120 min): 44.61
residual activity of protease at 50° C. ([5]; 20% sugar alcohol, 180 min): 39.25
residual activity of protease at 50° C. [5, 13]: 100
SMILES: OC[C@@H](O)[C@H](O)[C@@H](O)CO [xylitol]
